According to patent US20240382481A1 (priority 2021, published 2024):

Legend:
Test in all cases: biochemical
[1] = target: SRPK2 (Homo sapiens, UniProt P78362)
[2] = target: SRPK1 (Homo sapiens, UniProt Q96SB4)
[3] = target: SRPK3/MSSK1/STK23 (Homo sapiens, UniProt Q9UPE1)
SRPK3/MSSK1/STK23, sequence (Q9UPE1 whole entry): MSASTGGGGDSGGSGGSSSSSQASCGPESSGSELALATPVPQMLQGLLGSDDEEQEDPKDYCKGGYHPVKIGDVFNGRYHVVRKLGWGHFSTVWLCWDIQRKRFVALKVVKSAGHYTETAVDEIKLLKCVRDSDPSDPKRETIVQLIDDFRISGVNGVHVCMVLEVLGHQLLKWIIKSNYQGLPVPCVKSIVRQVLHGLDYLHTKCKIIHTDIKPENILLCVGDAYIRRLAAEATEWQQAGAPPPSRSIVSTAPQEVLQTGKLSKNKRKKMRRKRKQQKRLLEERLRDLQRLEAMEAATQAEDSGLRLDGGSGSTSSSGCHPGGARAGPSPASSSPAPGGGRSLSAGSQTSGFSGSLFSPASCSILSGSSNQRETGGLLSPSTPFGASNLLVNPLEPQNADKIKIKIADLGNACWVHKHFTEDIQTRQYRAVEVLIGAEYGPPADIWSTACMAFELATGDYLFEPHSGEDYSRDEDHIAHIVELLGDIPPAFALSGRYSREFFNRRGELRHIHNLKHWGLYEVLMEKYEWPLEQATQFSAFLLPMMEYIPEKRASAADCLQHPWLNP

SRPK1, sequence (Q96SB4 whole entry, species assumed): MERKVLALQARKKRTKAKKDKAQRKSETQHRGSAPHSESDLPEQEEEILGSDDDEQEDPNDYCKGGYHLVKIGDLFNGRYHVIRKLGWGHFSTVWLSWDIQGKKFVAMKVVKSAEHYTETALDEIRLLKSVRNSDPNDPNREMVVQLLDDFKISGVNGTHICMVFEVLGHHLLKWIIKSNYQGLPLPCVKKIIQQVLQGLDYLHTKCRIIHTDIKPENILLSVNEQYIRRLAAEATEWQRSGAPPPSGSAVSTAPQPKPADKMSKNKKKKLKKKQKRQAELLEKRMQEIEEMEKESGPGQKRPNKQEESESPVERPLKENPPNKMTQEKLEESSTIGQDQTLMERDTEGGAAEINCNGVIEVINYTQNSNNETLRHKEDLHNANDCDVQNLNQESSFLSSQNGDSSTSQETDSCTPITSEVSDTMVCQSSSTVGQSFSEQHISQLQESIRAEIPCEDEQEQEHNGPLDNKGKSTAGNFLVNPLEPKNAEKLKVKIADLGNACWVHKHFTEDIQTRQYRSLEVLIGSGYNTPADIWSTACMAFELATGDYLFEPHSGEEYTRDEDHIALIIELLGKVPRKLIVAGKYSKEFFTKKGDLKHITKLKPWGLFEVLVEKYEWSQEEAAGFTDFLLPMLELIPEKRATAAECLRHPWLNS
SRPK2, sequence (P78362 whole entry, species assumed): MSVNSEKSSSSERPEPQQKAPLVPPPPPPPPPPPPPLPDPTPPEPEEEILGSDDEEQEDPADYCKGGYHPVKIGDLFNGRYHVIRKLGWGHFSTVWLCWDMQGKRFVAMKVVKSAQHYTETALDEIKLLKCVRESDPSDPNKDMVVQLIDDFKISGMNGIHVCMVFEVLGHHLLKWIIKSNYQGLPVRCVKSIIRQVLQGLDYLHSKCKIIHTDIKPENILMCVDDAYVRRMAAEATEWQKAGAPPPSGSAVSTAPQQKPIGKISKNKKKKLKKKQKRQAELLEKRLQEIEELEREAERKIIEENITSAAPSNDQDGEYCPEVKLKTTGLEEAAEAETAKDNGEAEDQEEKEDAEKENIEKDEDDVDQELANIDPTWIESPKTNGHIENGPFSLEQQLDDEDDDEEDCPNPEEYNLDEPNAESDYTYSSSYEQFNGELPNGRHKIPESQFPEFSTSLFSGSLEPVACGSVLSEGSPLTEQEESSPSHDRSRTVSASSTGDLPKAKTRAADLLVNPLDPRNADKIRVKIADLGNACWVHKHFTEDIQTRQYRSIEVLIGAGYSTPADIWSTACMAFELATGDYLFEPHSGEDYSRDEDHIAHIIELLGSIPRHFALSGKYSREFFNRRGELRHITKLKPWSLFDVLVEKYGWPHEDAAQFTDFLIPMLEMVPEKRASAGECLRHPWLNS

| Compound | IC50 [1] [nM] | IC50 [2] [nM] | IC50 [3] [nM] |
| --- | --- | --- | --- |
| CN(c1ccccc1CNc1cccc(-c2nc3cc(Cl)ccc3[nH]2)n1)S(C)(=O)=O [Compound B3] | 50 to 500 | < 50 |  |
| CN(c1ncncc1CNc1ccnc(-c2nc3cc(Cl)ccc3[nH]2)n1)S(C)(=O)=O [Compound B4] | 500 to 2500 | 50 to 500 |  |
| CN(c1ncccc1CNc1cccc(-c2nc3cc(Cl)ccc3n2C)n1)S(C)(=O)=O [Compound B6] | 50 to 500 | 50 to 500 | < 50 |
| CCN(c1ncccc1CNc1ccnc(-c2nc3cc(Cl)ccc3[nH]2)n1)S(C)(=O)=O [Compound B8] | 50 to 500 | < 50 |  |
| Cc1cc(Cl)cc2nc(-c3nccc(NCc4cccnc4N(C)S(C)(=O)=O)n3)[nH]c12 [Compound B9] | 50 to 500 | < 50 | < 50 |
| CCn1c(-c2nccc(NCc3cccnc3N(C)S(C)(=O)=O)n2)nc2cc(Cl)ccc21 [Compound B15] | 500 to 2500 | < 50 |  |
| CCN(c1ncccc1Cn1ccc2cnc(-c3nc4cc(Cl)ccc4[nH]3)cc21)S(C)(=O)=O [Compound B16] | 50 to 500 | 50 to 500 | 50 to 500 |
| CN(c1ncccc1CNc1ccnc(-c2nc3cc(C(C)(C)C)c(F)cc3[nH]2)n1)S(C)(=O)=O [Compound B18] | 500 to 2500 | 50 to 500 | < 50 |
| CN(c1ncccc1CNc1ccnc(-c2nc3cc(Cl)c(Cl)cc3n2C)n1)S(C)(=O)=O [Compound B19] | 50 to 500 |  |  |
| CN(c1ncccc1Cn1c(=O)ccc2cnc(-c3nc4cc(Cl)ccc4[nH]3)cc21)S(C)(=O)=O [Compound B20] | 50 to 500 | 50 to 500 | 500 to 2500 |
| Cc1cc2cnc(-c3nc4cc(Cl)ccc4n3C)nc2n1Cc1cccnc1N(C)S(C)(=O)=O [Compound B21] | 50 to 500 | < 50 | 50 to 500 |
| Cc1cc2cnc(-c3nc4cc(Cl)c(Cl)cc4n3C)nc2n1Cc1cccnc1N(C)S(C)(=O)=O [Compound B22] | 50 to 500 | < 50 | 50 to 500 |
